Measurements as given in ChEMBL document CHEMBL5050844 (2019).
pIC50: −log10 of the molar value.

Key:
[1] = biological target: E3 ubiquitin-protein ligase CBL-B (Homo sapiens, UniProt Q13191); test: Inhibition of N-terminal Avi-tagged human CBL-B (36 to 427 residues) incubated with 60 nM Src kinase for 1.5 hrs followed by incubation with fluorescently labeled UbcH5B-Ub for 1 hr and measured by TR-FRET assay; format: single protein
[2] = Induction of anti-CD3/CD28 antibodies-stimulated human T cell activation at 0.3 uM assessed fold increase in IL-2 secretion measured by ELISA assay; format: functional, T cell line
[3] = Induction of anti-CD3/CD28 antibodies-stimulated human T cell activation at 1 uM assessed fold increase in IL-2 secretion measured by ELISA assay; format: functional, T cell line
[4] = Induction of anti-CD3 antibodies-stimulated human T cell activation at 1 uM assessed fold increase in CD25 expression measured by ELISA assay; format: functional, T cell line; note: reference of the scale not given here
[5] = Induction of anti-CD3/CD28 antibodies-stimulated human T cell activation at 0.3 uM assessed fold increase in CD25 expression measured by ELISA assay; format: functional, T cell line
[6] = Induction of anti-CD3/CD28 antibodies-stimulated human T cell activation at 1 uM assessed fold increase in CD25 expression measured by ELISA assay; format: functional, T cell line
[7] = Induction of anti-CD3 antibodies-stimulated human T cell activation at 1 uM assessed fold increase in IL-2 secretion measured by ELISA assay; format: functional, T cell line; note: reference of the scale not given here

Sequence of E3 ubiquitin-protein ligase CBL-B (Q13191 whole entry, the tested form may be a part): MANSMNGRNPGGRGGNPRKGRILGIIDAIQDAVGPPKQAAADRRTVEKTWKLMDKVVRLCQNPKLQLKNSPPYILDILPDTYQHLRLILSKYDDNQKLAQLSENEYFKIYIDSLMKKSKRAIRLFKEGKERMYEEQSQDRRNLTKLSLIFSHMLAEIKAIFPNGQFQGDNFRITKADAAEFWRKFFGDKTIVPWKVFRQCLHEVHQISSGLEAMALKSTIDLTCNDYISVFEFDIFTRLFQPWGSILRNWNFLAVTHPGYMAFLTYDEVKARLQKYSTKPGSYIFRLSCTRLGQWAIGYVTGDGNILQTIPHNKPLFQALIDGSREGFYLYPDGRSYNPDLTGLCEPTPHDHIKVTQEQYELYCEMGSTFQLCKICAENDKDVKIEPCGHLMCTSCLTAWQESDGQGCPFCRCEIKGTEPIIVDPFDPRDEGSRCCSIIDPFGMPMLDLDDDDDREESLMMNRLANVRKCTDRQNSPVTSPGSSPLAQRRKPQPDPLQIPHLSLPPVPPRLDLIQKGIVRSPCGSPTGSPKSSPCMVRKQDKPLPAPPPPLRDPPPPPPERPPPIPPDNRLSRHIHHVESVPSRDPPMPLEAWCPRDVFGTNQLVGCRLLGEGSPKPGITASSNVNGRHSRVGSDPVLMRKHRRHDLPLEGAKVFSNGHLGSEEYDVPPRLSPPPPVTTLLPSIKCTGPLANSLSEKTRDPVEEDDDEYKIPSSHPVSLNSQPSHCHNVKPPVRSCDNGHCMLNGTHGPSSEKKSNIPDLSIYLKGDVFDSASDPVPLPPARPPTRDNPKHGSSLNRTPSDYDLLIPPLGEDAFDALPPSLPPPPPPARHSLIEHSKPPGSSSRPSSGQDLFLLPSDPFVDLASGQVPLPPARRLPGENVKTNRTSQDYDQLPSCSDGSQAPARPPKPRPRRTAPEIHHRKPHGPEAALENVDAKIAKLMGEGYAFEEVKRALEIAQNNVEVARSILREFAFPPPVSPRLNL

Row | pIC50 [1] | Compound | fold change (FC) [2] | fold change (FC) [3] | fold change (FC) [4] | fold change (FC) [5] | fold change (FC) [6] | fold change (FC) [7]
1 | > 7.00 | Cn1cnnc1[C@H](F)C1(c2cccc(N3Cc4c(cc(CN5CCCCC5)cc4C(F)(F)F)C3=O)c2)COC1 | >=7.5 | >=7.5 | >=1.001 | 1.01 | 1.01 | >=0.201
2 | > 7.00 | Cn1cnnc1CC1(c2cccc(N3Cc4c(cc(CN5CCC[C@@H](F)C5)cc4C(F)(F)F)C3=O)c2)COC1 | >=7.5 | >=7.5 | >=1.001 | 1.31 | 1.31 | >=0.201
3 | > 7.00 | Cc1conc1CC1(c2cccc(NC(=O)c3cc(CN4CC[C@H](O)C4)nc(C4CC4)n3)c2)COC1 | >=7.5 | >=7.5 | >=1.001 | 1.31 | 1.31 | >=0.201
4 | > 7.00 | Cc1cc(C(=O)Nc2cccc(C3(Cc4nncn4C)COC3)c2)n2ncc(C)c2n1 | 2.51 | 2.51 | 0.801 | 1.01 | 1.01 | 0.051
5 | > 7.00 | Cn1cnnc1CC1(c2cccc(N3Cc4c(cc(CN5CCCC56COC6)cc4C(F)(F)F)C3=O)c2)COC1 | 1.01 | 5 | 0.801 | 1.01 | 1.31 | 0.151
6 | > 7.00 | CCOc1cc(N2Cc3c(cc([C@@H](C)N4CC[C@H](F)C4)cc3C(F)(F)F)C2=O)cc(C2(Cc3nncn3C)COC2)c1 | >=7.5 | >=7.5 | >=1.001 | 1.31 | 1.51 | >=0.201
7 | > 7.00 | Cn1cnnc1CC1(c2cccc(N3Cc4c(cc(CN5CC[C@H]6C[C@H]65)cc4C(F)(F)F)C3=O)c2)COC1 | >=7.5 | >=7.5 | >=1.001 | 1.51 | 1.51 | >=0.201
8 | > 7.00 | Cc1cc(C(=O)Nc2cccc(C(C)(C)Cc3nncn3C)c2)nc(C2CC2)n1 | 5 | >=7.5 | 0.801 | 1.31 | 1.31 | 0.101
9 | > 7.00 | Cn1cnnc1CC1(c2cccc(N3Cc4c(cc(CN5CCS(=O)(=O)CC5)cc4C(F)(F)F)C3=O)c2)COC1 | 2.51 | 2.51 | >=1.001 | 1.01 | 1.01 | 0.101
10 | > 7.00 | Cn1cnnc1CC1(c2cccc(NC(=O)c3cc(C4CC4)nc4ccnn34)c2)COC1 | 1.01 | 2.51 | 0.601 | 1.01 | 1.01 | <=0.05
11 | > 7.00 | Cn1cnnc1CC1(c2cccc(N3Cc4c(cc(C(F)(F)CO)cc4C(F)(F)F)C3=O)c2)COC1 | 1.01 | 1.01 | 0.801 | 1.01 | 1.01 | 0.101
12 | > 7.00 | C[C@@H](c1cc2c(c(C(F)(F)F)c1)CN(c1cccc(C3([C@H](F)c4nncn4C)COC3)c1)C2=O)N1CCC2(CC2)C1 (single isomer, unassigned) | >=7.5 | >=7.5 | >=1.001 | >=1.76 | >=1.76 | >=0.201
13 | > 7.00 | Cc1cc(C(=O)Nc2cccc([C@@]3(Cc4nncn4C)CCOC3)c2)nc(C2CC2)n1 | 2.51 | 2.51 | 0.801 | 1.01 | 1.01 | 0.101
14 | > 7.00 | Cn1cnnc1CC1(c2cccc(N3Cc4c(cc(CN5CCCC6CC65)cc4C(F)(F)F)C3=O)c2)COC1 (stereo unspecified) | >=7.5 | >=7.5 | >=1.001 | 1.01 | 1.01 | >=0.201
15 | > 7.00 | C[C@H](c1cc2c(c(C(F)(F)F)c1)CN(c1cccc(C3(Cc4nncn4C)COC3)c1)C2=O)N1CC2CC2C1 (stereo partly specified) | >=7.5 | >=7.5 | >=1.001 | 1.31 | 1.31 | >=0.201
16 | > 7.00 | Cn1cnnc1C[C@]1(c2cccc(N3Cc4c(cc(CN5CCC6(CC6)C5)cc4C(F)(F)F)C3=O)c2)CCOC1 | >=7.5 | >=7.5 | >=1.001 | 1.01 | 1.01 | >=0.201
17 | > 7.00 | Cn1cnnc1CC1(c2cccc(N3Cc4c(cc(N5CCN6CCC[C@@H]6C5)cc4C(F)(F)F)C3=O)c2)COC1 | >=7.5 | >=7.5 | >=1.001 | >=1.76 | >=1.76 | >=0.201
18 | > 7.00 | COC1CCCN(Cc2cc3c(c(C(F)(F)F)c2)CN(c2cccc(C4(Cc5nncn5C)COC4)c2)C3=O)C1 (stereo unspecified) | >=7.5 | >=7.5 | >=1.001 | 1.31 | 1.51 | >=0.201
19 | > 7.00 | C[C@H](c1cc2c(c(C(F)(F)F)c1)CN(c1cccc(C3([C@H](F)c4nncn4C)COC3)c1)C2=O)N1CCC2(CC2)C1 (single isomer, unassigned) | >=7.5 | >=7.5 | >=1.001 | >=1.76 | >=1.76 | >=0.201
20 | > 7.00 | Cn1cnnc1CC1(c2cccc(NC(=O)c3cc(CN4CCC4)nc(C4CC4)n3)c2)COC1 | 2.51 | 5 | 0.801 | 1.01 | 1.31 | 0.051
21 | > 7.00 | Cn1cnnc1CC1(c2cccc(N3Cc4c(cc(CN5CCCC(F)(F)CC5)cc4C(F)(F)F)C3=O)c2)COC1 | >=7.5 | >=7.5 | >=1.001 | 1.01 | 1.01 | >=0.201
22 | > 7.00 | C[C@@H]1CCN(Cc2cc3c(c(C(F)(F)F)c2)CN(c2cccc(C4(Cc5nncn5C)COC4)c2)C3=O)C[C@H]1F (relative stereo) | >=7.5 | >=7.5 | >=1.001 | 1.31 | 1.51 | >=0.201
23 | > 7.00 | CC(c1cc2c(c(C(F)(F)F)c1)CN(c1cccc(C3(Cc4nncn4C)COC3)c1)C2=O)N1CC(S(C)(=O)=O)C1 (stereo unspecified) | 1.01 | 1.01 | 0.601 | 1.01 | 1.01 | 0.101
24 | > 7.00 | Cn1cnnc1CC1(c2cccc(N3Cc4c(cc(N5CC(C(F)F)C5)cc4C(F)(F)F)C3=O)c2)COC1 | 2.51 | 5 | 0.801 | 1.01 | 1.01 | 0.051
25 | > 7.00 | CN1C[C@@H]2C[C@H]1CN2c1cc2c(c(C(F)(F)F)c1)CN(c1cccc(C3(Cc4nncn4C)COC3)c1)C2=O (single isomer, unassigned) | >=7.5 | >=7.5 | >=1.001 | 1.31 | 1.31 | >=0.201
26 | > 7.00 | CC(c1cc2c(c(C3CC3)n1)CN(c1cccc(C3(Cc4nncn4C)COC3)c1)C2=O)N1CCCC1 (stereo unspecified) | 1.01 | 2.51 | 0.601 | 1.01 | 1.01 | <=0.05

Row | Compound | pIC50 [1] | fold change (FC) [2] | fold change (FC) [3] | fold change (FC) [4] | fold change (FC) [5] | fold change (FC) [6] | fold change (FC) [7]
27 | Cn1cnnc1[C@H](F)C1(c2cccc(N3Cc4c(cc(CN5[C@H]6CC[C@H]5CC(F)C6)cc4C(F)(F)F)C3=O)c2)COC1 (stereo partly specified) | > 7.00 | >=7.5 | >=7.5 | >=1.001 | >=1.76 | >=1.76 | >=0.201
28 | CN1C2CCC1CN(c1cc3c(c(C(F)(F)F)c1)CN(c1cccc([C@@](C)(F)C(F)(F)c4nncn4C)c1)C3=O)C2 | > 7.00 | 1.01 | 2.51 | 0.801 | 1.01 | 1.31 | 0.101
